In patent US11208422B2, “Substituted bridged diazepane derivatives and use thereof as TASK-1 and TASK-3 inhibitors” (Bayer Pharma Aktiengesellschaft, priority 2017, dated 2021) one finds IC50 data, which are given here for 23 compounds.

Molecules are shown by their SMILES.

One assay concerns the target recombinant TASK-3 (Homo sapiens (Human), UniProt Q9NPC2). In words: Inhibition of recombinant TASK-3 in stably transfected CHO cells (KCl-induced depolarization, voltage-sensitive dye, FLIPR). It counts as cell-based. The note with it: depolarization induced by 40 mM potassium chloride, some mean values from multiple determinations. As for the experimental part: (§1) The compounds of the invention were tested here with administration of 40 mM of potassium chloride in the presence of a voltage-sensitive dye using the method described in detail in the following references [Whiteaker et al., Validation of FLIPR membrane potential dye for high-throughput screening of potassium channel modulators, J. Biomol. Screen. 6 (5), 305-312 (2001); Molecular Devices FLIPR Application Note: Measuring membrane potential using the FLIPR® membrane potential assay kit on Fluorometric Imaging Plate Reader (FLIPR®) systems, http://www.moleculardevices.com/reagents-supplies/assay-kits/ion-channels/flipr-membrane-potential-assay-kits]. The activity of the test substances was determined as their ability to inhibit a depolarization induced in the recombinant cells by 40 mM potassium chloride. The concentration which can block half of this depolarization is referred to as IC50.

In a further assay the target is recombinant TASK-1 (Homo sapiens (Human), UniProt O14649). In words: Inhibition of recombinant TASK-1 in stably transfected CHO cells (KCl-induced depolarization, voltage-sensitive dye, FLIPR). As to conditions: depolarization induced by 40 mM potassium chloride, some mean values from multiple determinations. It counts as cell-based. As for the experimental part:
as §1

recombinant TASK-1, sequence (O14649 whole entry): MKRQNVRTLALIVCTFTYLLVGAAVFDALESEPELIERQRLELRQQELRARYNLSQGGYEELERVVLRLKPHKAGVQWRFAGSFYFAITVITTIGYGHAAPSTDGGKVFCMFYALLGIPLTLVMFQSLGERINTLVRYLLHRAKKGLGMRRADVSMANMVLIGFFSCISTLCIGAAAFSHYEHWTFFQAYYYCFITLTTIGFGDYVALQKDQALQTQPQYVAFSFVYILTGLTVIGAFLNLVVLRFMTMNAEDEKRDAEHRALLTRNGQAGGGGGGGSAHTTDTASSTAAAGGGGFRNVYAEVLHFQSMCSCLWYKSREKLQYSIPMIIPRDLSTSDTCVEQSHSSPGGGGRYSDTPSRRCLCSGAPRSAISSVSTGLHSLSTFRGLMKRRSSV
recombinant TASK-3, sequence (Q9NPC2 whole entry): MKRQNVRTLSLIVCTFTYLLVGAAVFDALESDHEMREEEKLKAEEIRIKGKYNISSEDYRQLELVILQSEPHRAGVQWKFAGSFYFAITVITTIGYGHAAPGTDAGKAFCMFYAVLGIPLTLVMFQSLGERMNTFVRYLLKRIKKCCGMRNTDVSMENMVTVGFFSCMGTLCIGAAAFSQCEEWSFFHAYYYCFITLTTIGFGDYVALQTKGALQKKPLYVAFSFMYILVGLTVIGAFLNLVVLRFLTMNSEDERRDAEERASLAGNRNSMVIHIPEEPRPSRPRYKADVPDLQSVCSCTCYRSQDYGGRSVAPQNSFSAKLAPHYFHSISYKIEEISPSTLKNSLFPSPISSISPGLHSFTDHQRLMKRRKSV

Take `O=C(c1ccccc1F)N1C2CCC1CN(Cc1c(-c3ccc(Cl)cc3)nc3ccccn13)CC2` (racemic) [Example 69, [3-{[2-(4-chlorophenyl)imidazo[1,2-a]pyridin-3-yl]methyl}-3,9-diazabicyclo[4.2.1]non-9-yl](2-fluorophenyl)methanone]: the IC50 came out at 62 nM at recombinant TASK-3 and 1400 nM on recombinant TASK-1.

Consider `COc1cccc(C(=O)N2C3CCC2CN(Cc2c(-c4ccc(Cl)cc4)nc4ccccn24)CC3)n1` (racemic) [Example 70, [3-{[2-(4-chlorophenyl)imidazo[1,2-a]pyridin-3-yl]methyl}-3,9-diazabicyclo[4.2.1]non-9-yl](6-methoxypyridin-2-yl)methanone], for which the figures for the IC50 on recombinant TASK-3 and at recombinant TASK-1 were 4.7 nM and 305 nM, respectively.

With `O=C(c1ccccc1F)N1C2CCN(Cc3c(-c4ccc(Cl)cc4)nc4ccccn34)CC1COC2` (racemic) [Example 71, (3-{[2-(4-chlorophenyl)imidazo[1,2-a]pyridin-3-yl]methyl}-8-oxa-3,10-diazabicyclo[4.3.1]dec-10-yl](2-fluorophenyl)methanone], the IC50 at recombinant TASK-3 was 31 nM; at recombinant TASK-1, 740 nM.

Take `COc1cccc(C(=O)N2C3CCN(Cc4c(-c5ccc(Cl)cc5)nc5ccccn45)CC2COC3)n1` (racemic) [Example 72, [3-{[2-(4-chlorophenyl)imidazo[1,2-a]pyridin-3-yl]methyl}-8-oxa-3,10-diazabicyclo[4.3.1]dec-10-yl](6-methoxypyridin-2-yl)methanone]: the IC50 came to 5.1 nM at recombinant TASK-3 and 120 nM on recombinant TASK-1.

`Cc1nonc1C(=O)N1C2CCN(Cc3c(-c4ccc(Cl)cc4)nc4ccccn34)CC1COC2` (racemic) [Example 73, [3-{[2-(4-chlorophenyl)imidazo[1,2-a]pyridin-3-yl]methyl}-8-oxa-3,10-diazabicyclo[4.3.1]dec-10-yl](4-methyl-1,2,5-oxadiazol-3-yl)methanone]: the values for the IC50 at recombinant TASK-3 and on recombinant TASK-1 were 5 nM and 99 nM, respectively.

With `O=C(c1ccccc1F)N1C2CCN(Cc3c(-c4ccc(Cl)cc4)nc4ncccn34)CC1COC2` (racemic) [Example 74, [3-{[2-(4-chlorophenyl)imidazo[1,2-a]pyrimidin-3-yl]methyl}-8-oxa-3,10-diazabicyclo[4.3.1]dec-10-yl](2-fluorophenyl)methanone], the IC50 was 200 nM at recombinant TASK-3 and 5000 nM at recombinant TASK-1.

As to `COc1cccc(C(=O)N2C3CCN(Cc4c(-c5ccc(Cl)cc5)nc5ncccn45)CC2COC3)n1` (racemic) [Example 75, [3-{[2-(4-chlorophenyl)imidazo[1,2-a]pyrimidin-3-yl]methyl}-8-oxa-3,10-diazabicyclo[4.3.1]dec-10-yl](6-methoxypyridin-2-yl)methanone], the results for the concentration for half-maximal inhibition (IC50) on recombinant TASK-3 and at recombinant TASK-1 were 77 nM and 2300 nM, respectively.

As for `Cc1nonc1C(=O)N1C2CCN(Cc3c(-c4ccc(Cl)cc4)nc4ncccn34)CC1COC2` (racemic) [Example 76, [3-{[2-(4-chlorophenyl)imidazo[1,2-a]pyrimidin-3-yl]methyl}-8-oxa-3,10-diazabicyclo[4.3.1]dec-10-yl](4-methyl-1,2,5-oxadiazol-3-yl)methanone], the results for the IC50 at recombinant TASK-3 and on recombinant TASK-1 were 66 nM and 1400 nM, respectively.

Turning to `Nc1nonc1C(=O)N1C2CCN(Cc3c(-c4ccc(Cl)cc4)nc4ncccn34)CC1COC2` (racemic) [Example 77, (4-amino-1,2,5-oxadiazo1-3-yl)[3-{[2-(4-chlorophenyl)imidazo[1,2-a]pyrimidin-3-yl]methyl}-8-oxa-3,10-diazabicyclo[4.3.1]dec-10-yl]methanone], the IC50 was found to be 270 nM on recombinant TASK-3 and 3300 nM on recombinant TASK-1.

`COc1ccc(F)c(C(=O)N2C3CCN(Cc4c(-c5ccc(Cl)cc5)nc5ccccn45)CC2COC3)n1` (racemic) [Example 92, [3-{[2-(4-chlorophenyl)imidazo[1,2-a]pyridin-3-yl]methyl}-8-oxa-3,10-diazabicyclo[4.3.1]dec-10-yl](3-fluoro-6-methoxypyridin-2-yl)methanone]: the figures for the IC50 at recombinant TASK-3 and at recombinant TASK-1 were 2.5 nM and 85 nM, respectively.

Regarding `COc1ccc(Cl)c(C(=O)N2C3CCC2CN(Cc2c(-c4ccc(Cl)cc4)nc4ncccn24)CC3)n1` (racemic) [Example 99, (3-chloro-6-methoxypyridin-2-yl)(3-{[2-(4-chlorophenyl)imidazo[1,2-a]pyrimidin-3-yl]methyl}-3,9-diazabicyclo[4.2.1]non-9-yl)methanone], the IC50 came out at 34 nM on recombinant TASK-3 and 290 nM on recombinant TASK-1.

Take `COc1ccc(Cl)c(C(=O)N2C3CCC2CN(Cc2c(-c4ccc(Cl)cn4)nc4ccccn24)CC3)n1` (racemic) [Example 100, (3-chloro-6-methoxypyridin-2-yl)(3-{[2-(5-chloropyridin-2-yl)imidazo[1,2-a]pyridin-3-yl]methyl}-3,9-diazabicyclo[4.2.1]non-9-yl)methanone]: the half-maximal inhibitory concentration (IC50) stood at 42 nM on recombinant TASK-3 and 370 nM on recombinant TASK-1.

In the case of `COc1ccc(F)c(C(=O)N2C3CCC2CN(Cc2c(-c4ccc(Cl)cn4)nc4ccccn24)CC3)n1` (single isomer, unassigned) [Example 16, [3-{[2-(5-Chloropyridin-2-yl)imidazo[1,2-a]pyridin-3-yl]methyl}-3,9-diazabicyclo[4.2.1]non-9-yl](3-fluoro-6-methoxypyridin-2-yl)methanone], the IC50 was determined as 65 nM at recombinant TASK-3 and 1700 nM on recombinant TASK-1.

With `COc1ccc(F)c(C(=O)N2CCC3CCC2CN3Cc2c(-c3ccc(Cl)cc3)nc3ncccn23)n1` (single isomer, unassigned) [Example 17, [6-{[2-(4-Chlorophenyl)imidazo[1,2-a]pyrimidin-3-yl]methyl}-2,6-diazabicyclo[3.2.2]non-2-yl](3-fluoro-6-methoxypyridin-2-yl)methanone], the IC50 at recombinant TASK-3 came out at 15 nM; at recombinant TASK-1, 3300 nM.

Regarding `COc1ccc(F)c(C(=O)N2C3CCC2CN(Cc2c(-c4ccc(Cl)cc4)nc4ccccn24)CC3)n1` (single isomer, unassigned) [Example 78, [3-{[2-(4-chlorophenyl)imidazo[1,2-a]pyridin-3-yl]methyl}-3,9-diazabicyclo[4.2.1]non-9-yl](3-fluoro-6-methoxypyridin-2-yl)methanone], the half-inhibitory concentration (IC50) on recombinant TASK-3 was found to be 5 nM; at recombinant TASK-1, 220 nM.

As for `COc1ccc(F)c(C(=O)N2C3CCC2CN(Cc2c(-c4ccc(Cl)cc4)nc4ccccn24)CC3)n1` (single isomer, unassigned) [Example 79, [3-{[2-(4-chlorophenyl)imidazo[1,2-a]pyridin-3-yl]methyl}-3,9-diazabicyclo[4.2.1]non-9-yl](3-fluoro-6-methoxypyridin-2-yl)methanone], the IC50 came to 11 nM at recombinant TASK-3 and 290 nM at recombinant TASK-1.

On to `O=C(c1ccccc1F)N1C2CCC1CN(Cc1c(-c3ccc(Cl)cc3)nc3ncccn13)CC2` (single isomer, unassigned) [Example 80], for which the half-inhibitory concentration (IC50) on recombinant TASK-3 was determined as 93 nM; at recombinant TASK-1, 4500 nM.

Take `COc1ccc(F)c(C(=O)N2C3CCC2CN(Cc2c(-c4ccc(Cl)cc4)nc4ncccn24)CC3)n1` (single isomer, unassigned) [Example 82, [3-{[2-(4-chlorophenyl)imidazo[1,2-a]pyrimidin-3-yl]methyl}-3,9-diazabicyclo[4.2.1]non-9-yl](3-fluoro-6-methoxypyridin-2-yl)methanone]: the IC50 at recombinant TASK-3 was determined as 1.4 nM; on recombinant TASK-1, 30 nM.

In the case of `COc1ccc(F)c(C(=O)N2C3CCC2CN(Cc2c(-c4ccc(Cl)cc4)nc4ncccn24)CC3)n1` (single isomer, unassigned) [Example 83, [3-{[2-(4-chlorophenyl)imidazo[1,2-a]pyrimidin-3-yl]methyl}-3,9-diazabicyclo[4.2.1]non-9-yl](3-fluoro-6-methoxypyridin-2-yl)methanone], the values for the IC50 at recombinant TASK-3 and at recombinant TASK-1 were 17 nM and 410 nM, respectively.

Consider `COc1cccc(C(=O)N2C3CCC2CN(Cc2c(-c4ccc(Cl)cn4)nc4ccccn24)CC3)n1` (single isomer, unassigned) [Example 84, [3-{[2-(5-chloropyridin-2-yl)imidazo[1,2-a]pyridin-3-yl]methyl}-3,9-diazabicyclo[4.2.1]non-9-yl](6-methoxypyridin-2-yl)methanone], for which the IC50 at recombinant TASK-3 was 25 nM; on recombinant TASK-1, 350 nM.

With `COc1cccc(C(=O)N2C3CCC2CN(Cc2c(-c4ccc(Cl)cn4)nc4ccccn24)CC3)n1` (single isomer, unassigned) [Example 85, [3-{[2-(5-chloropyridin-2-yl)imidazo[1,2-a]pyridin-3-yl]methyl}-3,9-diazabicyclo[4.2.1]non-9-yl](6-methoxypyridin-2-yl)methanone], the IC50 at recombinant TASK-3 came out at 370 nM; on recombinant TASK-1 it was 6300 nM.

With `COc1cccc(C(=O)N2C3CCC2CN(Cc2c(-c4ccc(Cl)cc4)nc4ncccn24)CC3)n1` (single isomer, unassigned) [Example 86, [3-{[2-(4-chlorophenyl)imidazo[1,2-a]pyrimidin-3-yl]methyl}-3,9-diazabicyclo[4.2.1]non-9-yl](6-methoxypyridin-2-yl)methanone], the IC50 at recombinant TASK-3 was 28 nM; on recombinant TASK-1, 340 nM.

In the case of `COc1cccc(C(=O)N2C3CCC2CN(Cc2c(-c4ccc(Cl)cc4)nc4ncccn24)CC3)n1` (single isomer, unassigned) [Example 87, [3-{[2-(4-chlorophenyl)imidazo[1,2-a]pyrimidin-3-yl]methyl}-3,9-diazabicyclo[4.2.1]non-9-yl](6-methoxypyridin-2-yl)methanone], the IC50 at recombinant TASK-3 came out at 210 nM; on recombinant TASK-1 it was 1600 nM.
